Test results published in patent US7763596B2, “Selective glucocorticoid receptor agonists” (The University of Manchester, priority 2000, dated 2010).

Legend:
[1] = target: T1, progesterone receptor (PRB) (Homo sapiens, UniProt P06401); assay: Progestogen activity assay using progesterone receptor transactivation; format: cell-based; details: 100 nM; for PRB reporter gene activation: AH3-luc reporter, COS7
T1 construct: expressed in transfected cells; host or cells: COS 7
T1 sequence (P06401 1-933): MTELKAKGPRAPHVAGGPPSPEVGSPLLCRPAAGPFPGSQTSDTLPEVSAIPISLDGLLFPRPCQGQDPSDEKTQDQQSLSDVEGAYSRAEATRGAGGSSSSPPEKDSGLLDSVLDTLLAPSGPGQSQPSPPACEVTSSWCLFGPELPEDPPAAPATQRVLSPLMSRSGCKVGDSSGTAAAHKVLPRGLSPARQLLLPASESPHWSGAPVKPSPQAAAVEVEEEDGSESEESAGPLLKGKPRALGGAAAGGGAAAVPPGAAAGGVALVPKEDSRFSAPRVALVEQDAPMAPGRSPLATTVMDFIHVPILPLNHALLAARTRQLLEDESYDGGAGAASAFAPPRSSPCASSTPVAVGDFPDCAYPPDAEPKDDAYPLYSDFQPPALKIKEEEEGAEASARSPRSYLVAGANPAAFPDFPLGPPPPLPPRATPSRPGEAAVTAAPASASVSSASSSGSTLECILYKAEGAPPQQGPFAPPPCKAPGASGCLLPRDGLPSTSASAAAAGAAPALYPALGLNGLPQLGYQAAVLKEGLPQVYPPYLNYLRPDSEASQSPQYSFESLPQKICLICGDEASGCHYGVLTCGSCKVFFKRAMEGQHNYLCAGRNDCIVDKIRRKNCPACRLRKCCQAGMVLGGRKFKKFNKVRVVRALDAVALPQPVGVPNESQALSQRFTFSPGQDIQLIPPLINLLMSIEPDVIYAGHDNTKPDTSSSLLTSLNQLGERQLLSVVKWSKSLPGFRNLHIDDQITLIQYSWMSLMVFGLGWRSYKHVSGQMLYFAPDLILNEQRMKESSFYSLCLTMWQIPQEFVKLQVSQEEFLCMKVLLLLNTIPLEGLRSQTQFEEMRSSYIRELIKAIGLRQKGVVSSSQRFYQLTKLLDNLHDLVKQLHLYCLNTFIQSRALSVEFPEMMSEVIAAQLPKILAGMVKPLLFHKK
Source text: As the GR LBD has strong homology with the PR LBD there is a chance that any of the tested steroids of FIGS. 1 and 2A that activate one of these receptors may also activate the other. The presence of illegitimate progestogen activity associated with the steroids of FIGS. 1 and 2A was examined using a transactivation assay with the PR instead of the GR.
The PR was artificially expressed in a cell line lacking endogenous PR and a GRE “driving” a luciferase reporter gene was used to measure ligand dependent activation.
COS7 cells were transfected with 1 μg pSEO-PRB and 3 μg AH3-Luc per 10 cm tissue culture dish. The cells were plated out in to 24 well plates after transfection and the steroids of FIGS. 1 and 2A were added immediately to generate a final concentration of 100 nM. After 18 hour incubation the cells were lysed and a luciferase assay was performed.

glucocorticoid receptor = target: T2, glucocorticoid receptor (Homo sapiens, UniProt P04150); assay: Type II antagonist activity assay: competition of dexamethasone transactivation; format: cell-based; design: expressed in transfected cells; host or cells: COS 7 (African green monkey kidney, deficient in endogenous GR); details: COS7 cells stimulated with 1 nM dexamethasone
T2 sequence (P04150 1-777): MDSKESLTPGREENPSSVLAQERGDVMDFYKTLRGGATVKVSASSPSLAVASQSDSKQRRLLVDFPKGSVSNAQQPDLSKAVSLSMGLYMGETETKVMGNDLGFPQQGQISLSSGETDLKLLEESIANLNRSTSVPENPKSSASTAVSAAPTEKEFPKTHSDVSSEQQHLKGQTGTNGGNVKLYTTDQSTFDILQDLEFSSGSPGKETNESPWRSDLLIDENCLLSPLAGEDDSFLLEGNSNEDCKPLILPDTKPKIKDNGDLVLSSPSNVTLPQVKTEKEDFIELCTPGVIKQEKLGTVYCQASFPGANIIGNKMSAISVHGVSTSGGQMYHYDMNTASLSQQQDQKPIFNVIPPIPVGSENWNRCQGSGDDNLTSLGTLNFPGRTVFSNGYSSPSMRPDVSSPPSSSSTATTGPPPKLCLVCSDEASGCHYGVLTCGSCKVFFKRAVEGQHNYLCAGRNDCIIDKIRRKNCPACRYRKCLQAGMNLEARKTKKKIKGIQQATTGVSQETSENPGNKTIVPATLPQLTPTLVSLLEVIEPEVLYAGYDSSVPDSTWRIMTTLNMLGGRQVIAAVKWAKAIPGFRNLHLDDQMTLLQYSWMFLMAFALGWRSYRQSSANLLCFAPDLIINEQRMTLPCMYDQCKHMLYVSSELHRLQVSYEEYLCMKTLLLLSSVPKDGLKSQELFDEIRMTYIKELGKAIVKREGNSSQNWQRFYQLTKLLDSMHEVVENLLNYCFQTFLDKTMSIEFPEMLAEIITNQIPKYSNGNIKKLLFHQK
Procedure: A type II antagonist should be able to compete agonist activity. As an antagonist has no ability to transactivate, competition can be measured by inhibition of an agonist in a transactivation assay.
As with the standard transactivation assay previously described, the GR was artificially expressed in a cell line lacking endogenous GR and a GRE “driving” a luciferase reporter gene was used to measure ligand dependent activation. COS7 cells were transfected with 1 μg pcDNA3-GR and 3 μg AH3-Luc per 10 cm tissue culture dish. The cells were plated out in to 24 well plates after transfection and the steroids were added immediately. […] Certain steroids from FIG. 2A were added at the same concentration to all sample wells. After 18 hour incubation the cells were lysed and a luciferase assay was performed.

Structure (SMILES) | PRB reporter gene activation [1] | competition of dexamethasone transactivation (glucocorticoid receptor) | PRB activation relative to the activation generated by progesterone [1] [%]
Cc1ccc(NC(=O)C2(O)C(C)CC3C4CCC5=CC(=O)C=CC5(C)C4(F)C(O)CC32C)cc1 (stereo not shown) [Compound O] | slightly increased reporter gene activation compared to that of dexamethasone | failed to repress dexamethasone transactivation | 
CCCOC(=O)C1(O)C(C)CC2C3CCC4=CC(=O)C=CC4(C)C3(F)C(O)CC21C (stereo not shown) [R] | slightly increased reporter gene activation compared to that of dexamethasone | failed to repress dexamethasone transactivation | 
CC1CC2C3CCC4=CC(=O)C=CC4(C)C3(F)C(O)CC2(C)C1(O)C(=O)NCCC(=O)O (stereo not shown) [Q] | slightly increased reporter gene activation compared to that of dexamethasone | failed to repress dexamethasone transactivation | 
CCCCCCNC(=O)OCC(=O)C1(O)C(C)CC2C3CCC4=CC(=O)C=CC4(C)C3(F)C(O)CC21C (stereo not shown) [Compound T] | slightly increased reporter gene activation compared to that of dexamethasone |  | 
CC1CC2C3CCC4=CC(=O)C=CC4(C)C3(F)C(O)CC2(C)C1(O)C(=O)NCCCO (stereo not shown) [L] | slightly increased reporter gene activation compared to that of dexamethasone | failed to repress dexamethasone transactivation | ~40
